These results are taken from ChEMBL document CHEMBL1147471, “Selecting against S1P3 enhances the acute cardiovascular tolerability of 3-(N-benzyl)aminopropylphosphonic acid S1P receptor agonists” (Bioorg Med Chem Lett, 2004).

The nature of data set [1]: in vivo. Particulars: rat, plasma, iv, 1 mg/kg.
Data set [2] in a line: in vivo. Particulars: rat, iv, 1 mg/kg.
Data set [3] can be described thus: in vivo. Particulars: rat, iv, 1 mg/kg. This is another data set of the same source.

The structures appear in SMILES notation.

Take `CCCCCCCCOc1c(Br)cc(CNCCCP(=O)(O)O)cc1OC`: in the data set “in vivo [1]”, the clearance is 9.2 mL/min/kg. Also, in the data set “in vivo [2]”, the half-life was 2.1 h. Besides, in the data set “in vivo [3]”, the distribution volume (Vd) was found to be 1.4 L/kg.
